target: EGFR kinase (Homo sapiens (Human), UniProt P00533); assay: EGFR kinase activity, luminescent ATP/ADP detection assay; type: biochemical; conditions: purified EGFR kinase, 10 min incubation, luminescence ADP detection
Description: Example RR: EGFR as a Drug Target Assay Conditions
The IC50s of the compounds on EGFR activity were determined using the Luminescent ATP/ADP detection assay system. Briefly, the assay method measures ADP formed from EGFR kinase activity using luminescence derived from ATP-Luciferase detection system. Purified EGFR kinase was incubated with different concentrations of test compound in the kinase reaction buffer for 10 min. The reaction was stopped by depleting the unused ATP in the kinase reaction buffer using the depletion buffer for 40 min. The levels of ADP generated during the kinase reaction was detected by measuring the luminescence using the Luciferase system.

Sequence of EGFR kinase (P00533 25-1210): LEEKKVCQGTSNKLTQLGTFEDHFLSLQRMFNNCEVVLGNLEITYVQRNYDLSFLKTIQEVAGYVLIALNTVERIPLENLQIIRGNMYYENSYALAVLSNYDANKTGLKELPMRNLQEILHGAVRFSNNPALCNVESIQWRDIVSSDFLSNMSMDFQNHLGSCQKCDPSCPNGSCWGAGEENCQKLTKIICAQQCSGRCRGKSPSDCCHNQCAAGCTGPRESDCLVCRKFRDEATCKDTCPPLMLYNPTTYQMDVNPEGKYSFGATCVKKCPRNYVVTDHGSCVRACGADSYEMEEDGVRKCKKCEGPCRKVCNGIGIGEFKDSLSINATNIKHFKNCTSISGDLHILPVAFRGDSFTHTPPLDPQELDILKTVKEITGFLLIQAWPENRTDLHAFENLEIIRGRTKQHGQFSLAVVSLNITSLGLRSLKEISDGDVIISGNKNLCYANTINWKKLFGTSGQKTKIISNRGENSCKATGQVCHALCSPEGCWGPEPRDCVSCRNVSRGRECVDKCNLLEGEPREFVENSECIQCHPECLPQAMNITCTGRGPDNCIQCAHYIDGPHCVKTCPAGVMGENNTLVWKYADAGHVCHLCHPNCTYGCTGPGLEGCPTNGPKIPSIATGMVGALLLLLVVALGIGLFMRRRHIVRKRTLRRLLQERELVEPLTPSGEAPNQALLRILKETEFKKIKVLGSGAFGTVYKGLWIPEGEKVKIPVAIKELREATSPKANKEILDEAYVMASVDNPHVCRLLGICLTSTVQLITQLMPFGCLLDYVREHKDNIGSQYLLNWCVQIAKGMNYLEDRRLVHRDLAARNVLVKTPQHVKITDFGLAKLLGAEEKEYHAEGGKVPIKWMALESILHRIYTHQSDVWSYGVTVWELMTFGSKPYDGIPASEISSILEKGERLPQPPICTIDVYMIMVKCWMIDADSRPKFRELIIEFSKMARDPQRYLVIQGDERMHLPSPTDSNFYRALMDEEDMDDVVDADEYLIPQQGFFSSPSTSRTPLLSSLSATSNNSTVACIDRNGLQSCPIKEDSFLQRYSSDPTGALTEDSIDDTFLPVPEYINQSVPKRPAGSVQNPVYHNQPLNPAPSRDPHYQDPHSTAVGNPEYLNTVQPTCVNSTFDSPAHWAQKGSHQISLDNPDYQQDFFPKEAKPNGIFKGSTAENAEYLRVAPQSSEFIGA

EGFR IC50 | IC50 [nM] | SMILES
Inactive | – | CC(=O)O[C@H]1CO[C@H]2[C@@H]1OC[C@@H]2Oc1ccnc(NC2CCN(S(=O)(=O)c3ccc(C)cc3)CC2)n1 [Example GG, [(3S,3aR,6S,6aR)-3-[2-[(1-tolylsulfonyl-4-piperidyl)amino]pyrimidin-4-yl]oxy-2,3,3a,5,6,6a-hexahydrofuro[3,2-b]furan-6-yl] acetate]
– | > 500 | CC(=O)O[C@H]1CO[C@H]2[C@@H]1OC[C@@H]2Oc1ccc(Nc2ncnc3ccsc23)cc1Cl [Example CC, [(3S,3aR,6S,6aR)-3-[2-chloro-4-(thieno[3,2-d]pyrimidin-4-ylamino)phenoxy]-2,3,3a,5,6,6a-hexahydrofuro[3,2-b]furan-6-yl] acetate]
– | > 500 | O=C(O[C@H]1CO[C@H]2[C@@H]1OC[C@@H]2Oc1ccc(Nc2ncnc3ccsc23)cc1Cl)c1ccccc1 [Example EE, [(3S,3aR,6S,6aR)-3-[2-chloro-4-(thieno[3,2-d]pyrimidin-4-ylamino)phenoxy]-2,3,3a,5,6,6a-hexahydrofuro[3,2-b]furan-6-yl] benzoate]
– | > 1000 | CC(=O)O[C@H]1CO[C@H]2[C@@H]1OC[C@@H]2Oc1ccc(Nc2ncnc3ccsc23)cc1 [Example Y, [(3S,3aR,6S,6aR)-3-[4-(thieno[3,2-d]pyrimidin-4-ylamino)phenoxy]-2,3,3a,5,6,6a-hexahydrofuro[3,2-b]furan-6-yl] acetate]
Inactive | – | CSc1ncc(Br)c(C(=O)O[C@H]2CO[C@H]3[C@@H]2OC[C@@H]3O)n1 [Example KK, [(3S,3aR,6S,6aR)-3-hydroxy-2,3,3a,5,6,6a-hexahydrofuro[3,2-b]furan-6-yl] 5-bromo-2-methylsulfanyl-pyrimidine-4-carboxylate]
– | > 100 | O[C@H]1CO[C@H]2[C@@H]1OC[C@@H]2Oc1ccc(Nc2ncnc3ccsc23)cc1Cl [Example U, (3S,3aR,6S,6aR)-6-[2-chloro-4-(thieno[3,2-d]pyrimidin-4-ylamino)phenoxy]-2,3,3a,5,6,6a-hexahydrofuro[3,2-b]furan-3-ol]
Inactive | – | CSc1nccc(Nc2ccc(O[C@H]3CO[C@H]4[C@@H]3OC[C@@H]4O)c(Cl)c2)n1 [Example V, (3S,3aR,6S,6aR)-6-[2-chloro-4-[(2-methylsulfanylpyrimidin-4-yl)amino]phenoxy]-2,3,3a,5,6,6a-hexahydrofuro[3,2-b]furan-3-ol]
Inactive | – | CC(=O)O[C@H]1CO[C@H]2[C@@H]1OC[C@@H]2Oc1ccnc(NC2CCN(S(C)(=O)=O)CC2)n1 [Example FF, [(3S,3aR,6S,6aR)-3-[2-[(1-methylsulfonyl-4-piperidyl)amino]pyrimidin-4-yl]oxy-2,3,3a,5,6,6a-hexahydrofuro[3,2-b]furan-6-yl] acetate]
Inactive | – | CC(=O)O[C@H]1CO[C@H]2[C@@H]1OC[C@@H]2Oc1ccnc(NCc2ccc(F)cc2)n1 [Example II, [(3S,3aR,6S,6aR)-3-[2-[(4-fluorophenyl)methylamino]pyrimidin-4-yl]oxy-2,3,3a,5,6,6a-hexahydrofuro[3,2-b]furan-6-yl] acetate]
– | > 100 | COc1cc2ncnc(Nc3ccc(O[C@H]4CO[C@H]5[C@@H]4OC[C@@H]5OCc4ccccc4)cc3)c2cc1OC [Example Z, N-[4-[[(3S,3aR,6S,6aR)-3-benzyloxy-2,3,3a,5,6,6a-hexahydrofuro[3,2-b]furan-6-yl]oxy]phenyl]-6,7-dimethoxy-quinazolin-4-amine]
Inactive | – | CC(=O)O[C@H]1CO[C@H]2[C@@H]1OC[C@@H]2Oc1ccnc(NC2CCN(C(=O)C(C)(C)C)CC2)n1 [Example HH, [(3S,3aR,6S,6aR)-3-[2-[[1-(2,2-dimethylpropanoyl)-4-piperidyl]amino]pyrimidin-4-yl]oxy-2,3,3a,5,6,6a-hexahydrofuro[3,2-b]furan-6-yl] acetate]

Reference: patent US10815244B2, “Isoidide derivatives and methods of making and using same” (Rutgers, the State University of New Jersey, priority 2015, dated 2020)
